Source: ChEMBL document CHEMBL3507680, “University of Dundee, Gates Library screen for HepG2 cell viability”

Assay: Human HepG2 cell viability assay in 384 well format
Format: toxicity, cell-based
Design: dose 125 nL, time 70.5 hour; cytotoxicity at 70.5 h: concentration not given beside the values
Conditions: HepG2 cells, read-out: Inhibition

Row | Compound | cytotoxicity at 70.5 h [%]
1 | N#CC1(C(=O)N2CCCN(Cc3cscn3)CC2)CCCCC1 | 0.606
2 | CCc1nc2n(n1)CC(NCC(=O)Nc1cc(C(C)(C)C)no1)CC2 (stereo not drawn) | -0.0913
3 | CCc1ccc(C(C)NC(=O)N2CCC(n3cncn3)CC2)cc1 (stereo not drawn) | -8.05
4 | Cn1cc(C2CCCN2C(=O)CCCc2cccs2)cn1 (stereo not drawn) | -12.4
5 | CC(C)c1noc(CCCC(=O)N2CCN(S(C)(=O)=O)CC2)n1 | -5.72
6 | CC(C)c1noc(CCC(=O)N2CCN(Cc3ccncc3)CC2)n1 | -7.35
7 | Cc1cc(CN(C)C(=O)c2cccc(N3CCCS3(=O)=O)c2)no1 | -12.6
8 | CC(Cn1ccnc1)NC(=O)C1(c2ccc(F)cc2)CCCC1 (stereo not drawn) | -7.69
9 | Cc1cc(CN2CCN(C(=O)CCCc3nc(C(C)C)no3)CC2)on1 | -8.77
10 | Cn1cc(NS(=O)(=O)c2ccc(F)c(F)c2)ccc1=O | -7.99
11 | Cn1ncc2c(=O)[nH]c(CN3CCCC3c3ccccc3Cl)nc21 (stereo not drawn) | -8.75
12 | Cn1ncc2c(=O)[nH]c(CN3CCc4ccccc4C3)nc21 | -15.9
13 | COC(=O)c1ccc(N2CCN(C(=O)c3ccc(O)nc3)C(C)C2)cc1 (stereo not drawn) | -7.53
14 | COC(=O)c1ccc(N2CCN(C(=O)c3cnccn3)C(C)C2)cc1 (stereo not drawn) | -6.45
15 | N#CC1(C(=O)N2CCN(Cc3cscn3)CC2)CCCCC1 | -4.74
16 | CCc1nc(CN2CCN(C(=O)C3(C#N)CCCCC3)CC2)cs1 | -0.0355
17 | Cc1nc(CN2CCCC(NCc3cccc(C(N)=O)c3)C2)no1 (stereo not drawn) | -3.45
18 | Cc1ccc(C)c(C(C)NC(=O)N2CCC(n3cncn3)CC2)c1 (stereo not drawn) | -3.74
19 | Cn1cc(C2CCCN2C(=O)CCCc2ccccn2)cn1 (stereo not drawn) | -7.85
20 | Cc1cc(NC(=O)CNC2CCc3nc(C(C)C)nn3C2)no1 (stereo not drawn) | -6.53

Row | Compound | cytotoxicity at 70.5 h [%]
21 | CCc1nc(CN2CCCC(NCc3cccc(C(N)=O)c3)C2)no1 (stereo not drawn) | -6.52
22 | Cc1cc(CN(C)C(=O)c2ccc(Cl)cc2N2CCCC2=O)no1 | -12.5
23 | CCNc1cc2c(nn1)CCN(C(=O)C1CCc3ccccc31)C2 (stereo not drawn) | -0.738
24 | COc1ccccc1C(C)NC(=O)N1CCC(n2cncn2)CC1 (stereo not drawn) | -7.85
25 | CCn1cnnc1C1CCN(C(=O)c2cc3c(s2)CCOC3)CC1 | -9.84
26 | Cn1cnnc1C1CCN(C(=O)c2cc3c(s2)CCC3)CC1 | -9.61
27 | Cc1oc(-c2ccco2)nc1CN1CCCC(Cn2cncn2)C1 (stereo not drawn) | 39.6
28 | CCOCC(O)CN1CCN(C(=O)c2ccc3c(c2)COC3)CC1 (stereo not drawn) | -8.02
29 | Cc1cccc(C)c1OCCNC(=O)C(C)n1cncn1 (stereo not drawn) | -11.4
30 | O=C(Nc1cccnc1)C1=NN(c2ccccc2)C(=O)CN1 | 6.02
31 | Cc1noc(CN2CCN(C(=O)N(C)C)CC2)n1 | -11
32 | CC(C(=O)NCCOc1ccc2c(c1)CCC2)n1cncn1 (stereo not drawn) | 7.17
33 | CC1CN(Cc2noc(C3CC3)n2)CCN1Cc1noc(C2CC2)n1 (stereo not drawn) | -13.7
34 | Cc1ccc(C(=O)N2CCN(CC(C)O)CC2)cc1S(C)(=O)=O (stereo not drawn) | -6.11
35 | CCc1nnc2n1CCN(C(=O)Cc1nc(-c3ccco3)oc1C)C2 | 10.8
36 | COC(=O)CN1CCCN(C(=O)CCOc2cccc(C)c2C)CC1 | -5.13
37 | COc1c(C2CCCN2Cc2cccc(C(N)=O)c2)c(C)nn1C (stereo not drawn) | -2.05
38 | Cc1nn(C)c(Cl)c1C1CCCN1Cc1ccc(C(N)=O)cc1 (stereo not drawn) | -7.15
39 | CCc1nnc2n1CCN(C(=O)c1ccc(-c3ccco3)[nH]c1=O)C2 | -6.59
40 | Cc1cccc(OCCC(=O)N2CCN(CC(=O)NC3CC3)CC2)c1C | -11.9

Row | Compound | cytotoxicity at 70.5 h [%]
41 | CCc1noc(CN2CCCN(C(C)=O)CC2)n1 | -6.42
42 | CCc1noc(CN2CCN(C(=O)C3CC3)CC2)n1 | -9.23
43 | CC(C)(O)CN1CCN(C(=O)c2ccc3c(c2)COC3)CC1 | -5.78
44 | COCCCNC(=O)CN1CCC(N2CCN(C)C2=O)CC1 | -10.4
45 | CCOCc1cc(CNC2CCCc3c2cnn3CC)ccc1OC (stereo not drawn) | -1.88
46 | CCc1nnsc1C(=O)N1CCCC1c1c(C)nn(C)c1OC (stereo not drawn) | 13.9
47 | Cc1ccccc1CN(C)C(=O)CN1CCOC(Cn2cncn2)C1 (stereo not drawn) | 1.73
48 | COc1c(C)cnc(CN2CCOC(Cn3cncn3)C2)c1C (stereo not drawn) | -3.24
49 | CC1CN(Cc2ccc(-n3cccn3)cc2)CCO1 (stereo not drawn) | 0.696
50 | CS(=O)(=O)NCCCN1CCCC1c1cccc(Br)c1 (stereo not drawn) | -9.99
51 | CCn1cc(CN2CCCN(C(=O)c3sc(C)nc3C)CC2)cn1 | 4.77
52 | CCn1cc(CN2CCCN(C(=O)c3ccc(C#N)cc3)CC2)cn1 | -4.62
53 | Cc1cnc(CN2CCCC2c2cnn(C)c2)cn1 (stereo not drawn) | -10.3
54 | CC(=O)c1cccc(S(=O)(=O)NCc2cccnc2N(C)C)c1 | -6.06
55 | COc1ccc(NC(=O)N(C)Cc2ccsc2)cn1 | -3.11
56 | N#CC1(NC(=O)CN2CCC(c3ccnn3CCO)CC2)CCCC1 | -11.9
57 | O=C(CN1CCC(c2ccnn2CCO)CC1)NC1CCCC1 | -3.63
58 | CCOc1cc(C)nc(N2CCN(C(=O)c3cn[nH]c3CC)CC2)n1 | -3.76
